The text below walks through data of patent publication US20100063085A1, “METHOD OF TREATING LEARNING IMPAIRMENT IN DOWN'S SYNDROME SUBJECTS” (University Court of The University of Dundee, priority 2008, published 2010).

Each structure is given as a SMILES string. Where two headings read alike, the source gives them in different places.

Common to all, as to assay: biochemical
The target of one assay is T1, ERK8 (Homo sapiens, UniProt Q8TD08).
T1 sequence (Q8TD08 1-544): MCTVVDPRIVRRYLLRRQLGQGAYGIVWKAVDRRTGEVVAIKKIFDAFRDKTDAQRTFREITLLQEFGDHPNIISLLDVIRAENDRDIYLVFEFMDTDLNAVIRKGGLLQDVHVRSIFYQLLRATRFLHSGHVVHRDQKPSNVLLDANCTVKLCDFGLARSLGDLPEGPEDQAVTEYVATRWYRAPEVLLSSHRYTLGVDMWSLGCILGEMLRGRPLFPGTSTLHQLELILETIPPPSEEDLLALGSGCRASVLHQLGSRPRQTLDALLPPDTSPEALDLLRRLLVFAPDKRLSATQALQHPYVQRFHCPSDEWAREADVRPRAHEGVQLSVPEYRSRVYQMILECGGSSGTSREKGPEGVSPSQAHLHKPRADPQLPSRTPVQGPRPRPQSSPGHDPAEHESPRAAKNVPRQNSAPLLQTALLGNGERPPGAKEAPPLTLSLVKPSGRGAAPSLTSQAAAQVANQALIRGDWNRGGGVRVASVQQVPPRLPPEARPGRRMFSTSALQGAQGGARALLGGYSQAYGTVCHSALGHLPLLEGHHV
The note with it: read-out: ERK8 activity as percentage of control without inhibitor. On the procedure: (§1) All assays (25.5 μl) were carried out at room temperature (21° C.) and were linear with respect to time and enzyme concentrations under the conditions used. Assays were performed for 30 minutes except assays for LCK and PKB which were performed for 15 minutes using Multidrop Micro reagent dispensers (Thermo Electron Corporation, Waltham, Mass. 02454, USA) in a 96-well format. The concentration of […] [γ-^33P] ATP (800 cpm/pmol) in the assays was one of three concentrations (5, 20 or 50 μM) in order to be at or below Km for ATP for the enzyme. Assays were initiated with MgATP and stopped by addition of 5 μl of 0.5M orthophosphoric acid. Assays were then harvested onto P81 filterplates using a unifilter harvester (PerkinElmer, Boston, Mass. 02118, USA), with a wash buffer of 50 mM orthophosphoric acid. Filterplates were then air dried overnight. 10 μl of Microscint O was added per well prior to counting for radioactivity.
(§2) The following kinases were assayed against the substrates indicated. Aurora B was assayed against the substrate peptide […] (300 μM), ERK8 and MST-2 were both assayed against MBP (0.33 mg/ml). IKKβ was assayed against the substrate peptide […] (300 μM), JNK3 was assayed against 3 μM ATF2[19-96]. MAPKAP-K3 and PKD1 were both assayed against […] (30 μM), MARK3 was assayed against CHKtide ([…]) substrate peptide (300 μM). MNK1 and MNK2 were both assayed against eIF4E protein (0.5 mg/ml). NEK7 was assayed against […] (300 μM), PIM2 was assayed against […] (300 μM), ΔPH PKBβ-S474D was assayed against Crosstide (30 μM), PLK1 was assayed against […] (300 μM). PRK2 was assayed against Long S6 peptide, […] (30 μM), RSK2 was assayed against […] (30 μM), SRC was assayed against cdc2 peptide, […], (300 μM) and SRPK1 was assayed against peptide […] (300 μM). All enzymes were diluted in 50 mM Tris/HCl pH 7.5, 0.1 mM EGTA, 1 mg/ml BSA, 0.1% β-mercaptoethanol buffer and assayed in an incubation containing 50 mM Tris/HCl pH7.5, 0.1 mM EGTA, 0.1% β-mercaptoethanol, CAMK-1 (5-20 mU) diluted in 50 mM Tris/HCl pH 7.5, 0.1 mM EGTA, 1 mg/ml BSA, 0.1% β-mercaptoethanol is assayed against substrate peptide […] in an incubation containing 50 mM Tris/HCl pH 7.5, 0.1 mM EGTA, 0.5 mM CaCl2, 0.3 μM calmodulin, 0.1% β-mereaptoethanol, 300 μM substrate peptide, 10 mM magnesium acetate and 0.05 mM [^33P-γ-ATP] (500-1000 cpm/pmole). EF2K (5-20 mU) diluted in 50 mM Hepes pH 6.6, 0.1% β-mercaptoethanol, 1 mg/ml BSA is assayed against a substrate peptide […] in an incubation containing 50 mM Hepes pH 6.6, 0.2 mM CaCl2, 0.3 μM Calmodulin, 0.05% b-mercaptoethanol, 300 μM substrate peptide, 10 mM magnesium acetate and 0.05 mM [^33P-γ-ATP] (500-1000 cpm/pmole).

In a further assay the target is MARK3 (Homo sapiens, UniProt P27448). To be noted: read-out: MARK3 activity as percentage of control without inhibitor. How it is done:
as §1, §2

The target in another assay is T2, MST2 (Homo sapiens, UniProt Q13188).
T2 sequence (Q13188 1-491): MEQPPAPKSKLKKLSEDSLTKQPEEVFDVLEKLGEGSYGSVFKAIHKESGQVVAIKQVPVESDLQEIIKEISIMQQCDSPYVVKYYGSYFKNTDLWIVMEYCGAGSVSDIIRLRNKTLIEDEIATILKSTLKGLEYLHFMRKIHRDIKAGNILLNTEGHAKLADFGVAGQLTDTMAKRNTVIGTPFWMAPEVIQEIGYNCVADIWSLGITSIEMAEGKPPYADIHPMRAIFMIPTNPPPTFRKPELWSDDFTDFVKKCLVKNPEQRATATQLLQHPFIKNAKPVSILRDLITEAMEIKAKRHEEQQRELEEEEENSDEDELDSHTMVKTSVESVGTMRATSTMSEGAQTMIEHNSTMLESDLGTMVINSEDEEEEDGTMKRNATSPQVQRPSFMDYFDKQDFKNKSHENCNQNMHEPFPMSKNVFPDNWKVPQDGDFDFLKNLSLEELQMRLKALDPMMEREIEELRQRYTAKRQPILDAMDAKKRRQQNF
The note with it: read-out: MST2 activity as percentage of control without inhibitor. On the procedure:
as §1, §2

A further assay has as its target SRPK1 (Homo sapiens, UniProt Q96SB4). The note with it: read-out: SRPK1 activity as percentage of control without inhibitor. On the procedure:
as §1, §2

Chain of MARK3 (P27448 whole entry, species assumed): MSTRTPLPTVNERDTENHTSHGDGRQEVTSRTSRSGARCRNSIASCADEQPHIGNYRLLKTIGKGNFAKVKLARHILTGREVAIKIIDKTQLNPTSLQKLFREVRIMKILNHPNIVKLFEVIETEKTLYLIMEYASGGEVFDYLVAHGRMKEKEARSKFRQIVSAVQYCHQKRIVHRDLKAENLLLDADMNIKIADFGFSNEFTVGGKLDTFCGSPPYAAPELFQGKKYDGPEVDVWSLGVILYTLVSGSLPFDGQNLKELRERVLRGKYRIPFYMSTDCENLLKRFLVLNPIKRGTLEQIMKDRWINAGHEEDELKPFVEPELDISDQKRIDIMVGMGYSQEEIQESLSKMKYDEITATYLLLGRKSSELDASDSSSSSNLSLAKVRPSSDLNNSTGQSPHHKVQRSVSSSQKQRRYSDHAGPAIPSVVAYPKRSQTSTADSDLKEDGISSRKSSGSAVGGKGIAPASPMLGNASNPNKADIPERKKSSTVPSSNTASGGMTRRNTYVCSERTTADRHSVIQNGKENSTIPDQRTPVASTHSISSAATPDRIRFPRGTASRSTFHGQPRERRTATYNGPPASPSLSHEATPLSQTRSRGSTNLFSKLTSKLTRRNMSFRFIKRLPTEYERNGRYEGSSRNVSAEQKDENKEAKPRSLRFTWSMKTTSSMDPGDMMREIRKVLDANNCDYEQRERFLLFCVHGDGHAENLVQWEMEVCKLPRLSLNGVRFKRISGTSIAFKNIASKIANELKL
Chain of SRPK1 (Q96SB4 whole entry, species assumed): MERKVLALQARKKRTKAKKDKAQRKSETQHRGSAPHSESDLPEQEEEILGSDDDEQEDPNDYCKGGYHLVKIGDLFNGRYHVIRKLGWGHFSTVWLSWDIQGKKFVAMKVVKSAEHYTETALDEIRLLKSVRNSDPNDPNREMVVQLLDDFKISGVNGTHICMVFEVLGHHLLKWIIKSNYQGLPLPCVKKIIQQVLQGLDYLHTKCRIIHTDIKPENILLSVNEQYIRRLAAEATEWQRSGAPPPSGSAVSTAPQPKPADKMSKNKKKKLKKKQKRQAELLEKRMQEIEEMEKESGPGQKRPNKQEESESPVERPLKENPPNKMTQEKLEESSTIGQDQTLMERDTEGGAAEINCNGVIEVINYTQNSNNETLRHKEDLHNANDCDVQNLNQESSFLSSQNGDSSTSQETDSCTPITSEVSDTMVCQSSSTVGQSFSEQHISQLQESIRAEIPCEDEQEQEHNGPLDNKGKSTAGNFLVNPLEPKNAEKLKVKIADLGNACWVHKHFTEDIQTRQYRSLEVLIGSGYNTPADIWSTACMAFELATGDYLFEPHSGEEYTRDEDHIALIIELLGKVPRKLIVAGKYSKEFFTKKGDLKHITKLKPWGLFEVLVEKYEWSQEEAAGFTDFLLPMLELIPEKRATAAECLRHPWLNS

On to `COc1ccc2c3c([nH]c2c1)C(C)=NCC3` [Harmaline], for which the remaining activity at 1 µM at ERK8 (inhibitor 1 μM) turned out to be 58%; at MARK3 (inhibitor 1 μM) it was 99%; at MST2 (inhibitor 1 μM), 98%; on SRPK1 (inhibitor 1 μM), 104%. The remaining activity at 10 µM at ERK8 (inhibitor 10 μM) amounted to 21%; on MARK3 (inhibitor 10 μM), 103%; at MST2 (inhibitor 10 μM), 105%; at SRPK1 (inhibitor 10 μM), 97%.

Consider `CC1=NCCc2c1[nH]c1cc(O)ccc21` [Harmalol], for which the remaining activity at 1 µM was determined as 41% on ERK8 (inhibitor 1 μM), 93% on MARK3 (inhibitor 1 μM), 85% at MST2 (inhibitor 1 μM) and 88% on SRPK1 (inhibitor 1 μM). For the same compound, the remaining activity at 10 µM on ERK8 (inhibitor 10 μM) came to 21%; at MARK3 (inhibitor 10 μM), 84%; at MST2 (inhibitor 10 μM) it was 74%; on SRPK1 (inhibitor 10 μM) it was 72%.

Take `COc1ccc2c(c1)[nH]c1c(C)nccc12` [Harmine]: the remaining activity at 1 µM was determined as 25% on ERK8, 86% on MARK3, 91% at MST2 and 86% on SRPK1. The remaining activity at 10 µM on ERK8 stood at 19%; on MARK3, 86%; on MST2, 81%; at SRPK1, 83%.
